In patent USRE48461E1, “Modulation of androgen receptor expression” (Ionis Pharmaceuticals, Inc., priority 2012, dated 2021):

Experiments:
Assay type in all cases: cell-based, human
[1] = tested on: LMR20 cells; assay: Proliferation of MDV3100-resistant LMR20 cells (MTT; with R1881 or DHT); details: 5 days
Experimental: LMR20 cells were plated at 1,500 cells per well in phenol red-free medium with charcoal-stripped fetal bovine serum (CSS), to remove any androgens from the medium (Life Technologies). […] The synthetic androgen agonist, R1881, (Takeda, A. N. et al., Mol. Pharmacol. 2007. 71: 473-82) was added on day 1 at 1 nM dose to a set of cells also treated with each of the antisense oligonucleotides. DHT was added on day 1 at a dose of 10 nM to another set of cells also treated with each of the antisense oligonucleotides. […] After a treatment period of 5 days, the proliferative ability of the cancer cells was measured by the standard MTT assay. Results are presented in Table 42 as percent inhibition of proliferation, relative to non-treated cells.

[2] = tested on: AR mRNA; assay: AR mRNA levels in LMR20 cells (with/without DHT or R1881); details: with or without DHT/R1881
Experimental: LMR20 cells were plated at 1,500 cells per well in phenol red-free medium with CSS.

[3] = tested on: prostate-specific antigen (PSA) mRNA; assay: PSA mRNA levels in LMR20 cells; details: with or without DHT/R1881
Experimental: LMR20 cells were plated at 1,500 cells per well in phenol red-free medium with CSS. […] Results are presented in Tables 43-45 as mRNA levels expressed as a percentage of the baseline values. mRNA levels may be lowered or increased after treatment.

[4] = tested on: PSA mRNA; assay: PSA expression in LNCaP cells (complete, CSS+DHT medium); details: for Percent inhibition of PSA expression in LNCaP cells cultured in CSS + DHT medium: CSS + DHT (1 nM) medium, 48 hrs; for Percent inhibition of PSA expression in LNCaP cells cultured in complete medium: 48 hours
Experimental: Cells were plated at 1,000 cells per well. […] ISIS 549148 was included as a negative control. […] After an incubation period of 48 hours, RNA levels of AR, PSA and TMPRSS2 were measured.
Cells were plated at 2,000 cells per well and cultured in phenol red-free RPMI supplemented with 5% charcoal stripped serum (Gibco) media for 16 hours. […] ISIS 549148 was included as a negative control. […] After an incubation period of 4 hrs, DHT was added to the medium to a final concentration of 1 nM as indicated. RNAs were collected 48 hrs later and levels of AR, PSA and TMPRSS2 were measured. In the absence of DHT, AR expression in LNCaP cells was 95%, PSA expression was 7% and TMPRSS2 expression was 24% compared to the untreated control.

[5] = tested on: AR mRNA; assay: AR RNA expression in C4-2B cells (complete, CSS+DHT medium; Example 30); details: 48 hrs
Experimental: Cells were plated at 1,000 cells per well. […] ISIS 549148 was included as a negative control. […] After an incubation period of 48 hrs, RNA levels of AR, PSA and TMPRSS2 were measured.
Cells were plated at 2,000 cells per well and cultured in CSS media with 1 nM DHT. […] ISIS 549148 was included as a negative control. […] After an incubation period of 48 hrs, RNA levels of AR, PSA and TMPRSS2 were measured. In the absence of DHT, AR expression in C4-2 cells was 188%, PSA expression was 43% and TMPRSS2 expression was 27% compared to the untreated control.

[6] = tested on: PSA mRNA; assay: PSA expression in VCaP cells; details: RNAiMax, 48 hrs
Experimental: (§1) Cells were plated at 10,000 cells per well. […] After an incubation period of 48 hrs, RNA levels of full length AR, the V7 variant, PSA and TMPRSS2 were measured.
(§2) After an incubation period of 48 hrs, RNA levels of full length AR, the V7 variant, PSA and TMPRSS2 were measured. The data is presented in Tables 108 expressed as percent expression of gene levels compared to the untreated control.
(§3) Cells were plated at 15,000 cells per well and cultured in CSS media for 16 hours. […] After 4 hrs, 1 nM DHT was added. […] After an incubation period of 48 hrs, RNA levels of AR, PSA and TMPRSS2 were measured.

[7] = tested on: TMPRSS2 mRNA; assay: TMPRSS2 expression in VCaP cells; details: RNAiMax, 48 hrs
Experimental: as §1, §2, §3

Sequence: TTGATTTAATGGTTGC [ISIS 560131] (MOE and (S)-cEt gapmer chemistry, further chemistry not given here) [targets intron 1]
- Percent inhibition of LMR20 cell proliferation ([1]; CSS + DHT, ASO 0.04 μM): 0%
- Percent inhibition of LMR20 cell proliferation ([1]; CSS + DHT, ASO 0.20 μM): 13%
- Percent inhibition of LMR20 cell proliferation ([1]; CSS + DHT, ASO 1.0 μM): 57%
- Percent inhibition of LMR20 cell proliferation ([1]; CSS + DHT, ASO 5.0 μM): 71%
- Percent inhibition of LMR20 cell proliferation ([1]; CSS + R1881, ASO 0.04 μM): 0%
- Percent inhibition of LMR20 cell proliferation ([1]; CSS + R1881, ASO 0.20 μM): 13%
- Percent inhibition of LMR20 cell proliferation ([1]; CSS + R1881, ASO 1.0 μM): 55%
- Percent inhibition of LMR20 cell proliferation ([1]; CSS + R1881, ASO 5.0 μM): 70%
- Percent inhibition of LMR20 cell proliferation ([1]; CSS, ASO 0.04 μM): 0%
- Percent inhibition of LMR20 cell proliferation ([1]; CSS, ASO 0.20 μM): 0%
- Percent inhibition of LMR20 cell proliferation ([1]; CSS, ASO 1.0 μM): 9%
- Percent inhibition of LMR20 cell proliferation ([1]; CSS, ASO 5.0 μM): 16%
- LMR20 cell proliferation ([1]; in the presence of R1881 or DHT, 0.04-5.0 μM): significantly inhibited MDV3100-resistant prostate cancer cell proliferation in a dose dependent manner more extensively than ISIS 554221
- AR mRNA levels in LMR20 cells [2]: reduced AR mRNA levels in LMR20 cells, treated with or without either AR agonist, in a dose dependent manner relative to the baseline
- PSA mRNA levels in LMR20 cells [3]: reduced PSA levels and TMPRSS2 more extensively than the LNA gapmer ISIS 554221 or MDV3100
- Percent inhibition of PSA expression in LNCaP cells cultured in CSS + DHT medium ([4]; 0.04 μM): 10%
- Percent inhibition of PSA expression in LNCaP cells cultured in CSS + DHT medium ([4]; 0.2 μM): 21%
- Percent inhibition of PSA expression in LNCaP cells cultured in CSS + DHT medium ([4]; 1 μM): 21%
- Percent inhibition of PSA expression in LNCaP cells cultured in CSS + DHT medium ([4]; 5.0 μM): 72%
- Percent inhibition of PSA expression in LNCaP cells cultured in complete medium ([4]; 0.04 μM): 0%
- Percent inhibition of PSA expression in LNCaP cells cultured in complete medium ([4]; 0.2 μM): 60%
- Percent inhibition of PSA expression in LNCaP cells cultured in complete medium ([4]; 1 μM): 87%
- Percent inhibition of PSA expression in LNCaP cells cultured in complete medium ([4]; 5.0 μM): 90%
- Percent expression of AR ([5]; CSS + DHT medium, 0.04 μM): 55%
- Percent expression of AR ([5]; CSS + DHT medium, 0.2 μM): 31%
- Percent expression of AR ([5]; CSS + DHT medium, 1 μM): 15%
- Percent expression of AR ([5]; CSS + DHT medium, 5.0 μM): 13%
- Percent expression of AR ([5]; complete medium, 0.04 μM): 34%
- Percent expression of AR ([5]; complete medium, 0.2 μM): 15%
- Percent expression of AR ([5]; complete medium, 1 μM): 14%
- Percent expression of AR ([5]; complete medium, 5.0 μM): 14%
- Percent inhibition of PSA expression ([6]; CSS + DHT medium, 1.34 nM): 0%
- Percent inhibition of PSA expression ([6]; CSS + DHT medium, 4.0 nM): 35%
- Percent inhibition of PSA expression ([6]; CSS + DHT medium, 13.4 nM): 69%
- Percent inhibition of PSA expression ([6]; CSS + DHT medium, 40 nM): 73%
- Percent inhibition of PSA expression ([6]; complete medium, 1.34 nM): 2%
- Percent inhibition of PSA expression ([6]; complete medium, 4.0 nM): 24%
- Percent inhibition of PSA expression ([6]; complete medium, 13.4 nM): 35%
- Percent inhibition of PSA expression ([6]; complete medium, 40 nM): 46%
- Percent inhibition of TMPRSS2 expression ([7]; CSS + DHT medium, 1.34 nM): 0%
- Percent inhibition of TMPRSS2 expression ([7]; CSS + DHT medium, 4.0 nM): 21%
- Percent inhibition of TMPRSS2 expression ([7]; CSS + DHT medium, 13.4 nM): 49%
- Percent inhibition of TMPRSS2 expression ([7]; CSS + DHT medium, 40 nM): 57%
- Percent inhibition of TMPRSS2 expression ([7]; complete medium, 1.34 nM): 0%
- Percent inhibition of TMPRSS2 expression ([7]; complete medium, 4.0 nM): 0%
- Percent inhibition of TMPRSS2 expression ([7]; complete medium, 13.4 nM): 0%
- Percent inhibition of TMPRSS2 expression ([7]; complete medium, 40 nM): 4%
